In assay [1] the test system is Aspergillus niger-ATCC 9642, Penicillium funiculosum-ATCC 11797, Chaetomium globosum-ATCC 6205, Trichoderma virens-ATCC 9645, Aureobasidium pullulans-ATCC …. As to the kind of experiment: ASTM G21 strengthened (fungal growth on specimen, 28 days). It is filed as cell-based, mold fungi (composite spore suspension). As to conditions: for ASTM G21: 0.5 pbw (B) with 0.25 pbw (C) C8-C18-alkyldimethylbenzyl ammonium chloride; for ASTM G21 strengthened rating: rigid foam A4.

The subject of assay [2] is Penicillium funiculosum-ATCC 36839. As to the kind of experiment: Agar diffusion test SAN BIO 12/94. The assay is classed as cell-based. As to conditions: polyurethane coating A5. A general note: In agar diffusion tests the substance spreads into inoculated agar from a disc or well.
For assay [3], the system named is Escherichia coli ATCC 11229. As to the kind of experiment: JIS L 1902 test method (memory foam, 18 hours). The assay is classed as cell-based. As to conditions: memory foam A2.
The subject of assay [4] is Aspergillus niger-ATCC 6275, Penicillium funiculosum-ATCC 36839, Chaetomium globosum-ATCC 6205, Trichoderma virens ATCC 9645, Paecilomyces varioti-ATCC 18502. As to the kind of experiment: EN ISO 846 A test method (PUD coatings, 28 days). It is filed as cell-based, fungi (composite spore suspension). Set-up: key: 0: No fungal growth, excellent resistance; 1: fungi visible with the microscope, sufficient resistance; 2-5: fungi visible to the naked eye, insufficient resistance. As to conditions: polyurethane coating A5.

Assay [5] relates to Escherichia coli ATCC 8739. As to the kind of experiment: JIS Z 2801 test method (PUD coatings, 24 hours). As to conditions: polyurethane coating A5. It is filed as cell-based.
Where [6] appears, read: memory foam A1, 0.2 pbw (B) with 0.5 pbw (C) dimethyltetradecyl(3-(trimethoxysilyl)propyl)ammonium chloride, (E) Diglyme 0.8 pbw.
Setting [7] is: memory foam A2, 0.5 pbw (B), 0 pbw (C).
[8] abbreviates: memory foam A2, 0.125 pbw (C), 0 pbw (B).
Where [9] appears, read: memory foam A2, 0.25 pbw (C), 0 pbw (B).
[10] abbreviates: memory foam A2, 0.5 pbw (C), 0 pbw (B).
Setting [11] is: 0.5 pbw (C) with 0.25 pbw (B) tetrasodium EDTA salt.
[12] abbreviates: 0.5 pbw (C) with 0.5 pbw (B) tetrasodium EDTA salt.
[13] abbreviates: memory foam A2, 1 pbw (C), 0 pbw (B).
Where [14] appears, read: memory foam A2, 2 pbw (C), 0 pbw (B).

Several values for one entry are separate records, joined by “and”; a condition that tells them apart may be missing. Equal values may be shown once. Read-outs that look alike come from different tables or passages of the source.

On to `O=C(O)CC(O)(CC(=O)O)C(=O)O` [Citric acid], for which the “G21 (ASTM G21 strengthened rating)” value in assay [1] (setting [6]) was 4 (at least 60% of the surface is covered with mold fungi).

Turning to `O=C(O)CN(CCO)CCN(CC(=O)O)CC(=O)O` [N-(2-Hydroxyethyl)-ethylenediamine-N,N′,N′-triacetic acid], the “ASTM G21” value in assay [1] (memory foam A2) is on record as 2 (10 to 30% of the surface is covered with mold fungi). For the same compound, the “G21 (ASTM G21 strengthened rating)” value in assay [1] (setting [7]) is on record as 3 (30 to 60% of the surface is covered with mold fungi).

In the case of `O=C(O)CN(CC(=O)O)CC(=O)O` [Nitrilotriacetic acid], in assay [1] (setting [6]), the “G21 (ASTM G21 strengthened rating)” value is 4 (at least 60% of the surface is covered with mold fungi).

Consider `CCCCCCCCCCC(=O)O` [Undecanoic acid], for which the “G21 (ASTM G21 strengthened rating)” value in assay [1] (memory foam A1, 0.5 pbw (B) with 0.5 pbw (C) dimethyltetradecyl(3-(trimethoxysilyl)propyl)ammonium chloride, (E) Arcol Polyol 1108 0.5 pbw) is recorded as 4 (at least 60% of the surface is covered with mold fungi).

Regarding `CCCCCCCCCC[N+](C)(C)CCCCCCCCCC.[Cl-]` [didecyldimethyl ammonium chloride], the “G21 (ASTM G21 strengthened rating)” value in assay [1] came to 0.

Turning to `CCCCCCCCCCCCCCCCCC[N+](C)(C)CCC[Si](OC)(OC)OC.[Cl-]` [dimethyloctadecyl(3-(trimethoxysilyl)propyl)ammonium chloride], the “G21 (ASTM G21 strengthened rating)” value in assay [1] (setting [8]) is listed as 4 (at least 60% of the surface is covered with mold fungi); in assay [1] (setting [9]), 3 (30 to 60% of the surface is covered with mold fungi).

Regarding `CCCCCCCCCCCCCC[N+](C)(C)CCC[Si](OC)(OC)OC.[Cl-]` [dimethyltetradecyl(3-(trimethoxysilyl)propyl)ammonium chloride], the “SAN BIO 12-94 fungal growth” value in assay [2] (0.5 pbw (C), 0 pbw (B)) is “Full (f) (insufficient protection, sample is covered with fungi)”. For the same compound, the “logarithmic reduction of bacterial growth (log R), JIS L 1902” value in assay [3] (1 pbw (C), 0 pbw (B)) amounted to 2.7 log R. The “bacterial growth (in words)” value in assay [3] (combination of (C) with (B) disodium EDTA dihydrate) is on record as “absence of bacterial growth”. In addition, the “G21 (ASTM G21 strengthened rating)” value is given as 4 (at least 60% of the surface is covered with mold fungi) in assay [1] (memory foam A1, 0.5 pbw (C), no (B), (E) Arcol Polyol 1108 1 pbw); 4 (at least 60% of the surface is covered with mold fungi) in assay [1] (memory foam A1, 0.5 pbw (C), no (B), (E) Diglyme 1 pbw); 4 (at least 60% of the surface is covered with mold fungi) in assay [1] (memory foam A1, 0.5 pbw (C), no (B), (E) Triacetin 1 pbw); 3 (30 to 60% of the surface is covered with mold fungi) in assay [1] (memory foam A1, 0.5 pbw (C), no (B), no (E)); 4 (at least 60% of the surface is covered with mold fungi) in assay [1] (setting [8]); 3 (30 to 60% of the surface is covered with mold fungi) in assay [1] (setting [9]). In addition, in assay [1] (setting [10]), the “G21 (ASTM G21 strengthened rating)” value came to 0. Also, the “EN ISO 846 A rating” value in assay [4] (setting [11]) is 3; in assay [4] (setting [12]), 1; in assay [4] (0.5 pbw (C) with 1 pbw (B) tetrasodium EDTA salt) it was 0; in assay [4] (0.5 pbw (C), 0 pbw (B)), 5. Further, the “Bacterial Activity R, logarithmic reduction (log R activity), JIS Z 2801” value in assay [5] (0.125 pbw (C) with 0.25 pbw (B) tetrasodium EDTA salt) was 2.80 log R; in assay [5] (0.125 pbw (C) with 0.5 pbw (B) tetrasodium EDTA salt), greater than 5.10 log R; in assay [5] (0.125 pbw (C), 0 pbw (B)), 0.10 log R; in assay [5] (setting [11]), 2.90 log R; in assay [5] (setting [12]) it was greater than 5.10 log R; in assay [5] (0.5 pbw (C), 0 pbw (B)) it was 0.50 log R.

Consider `O.O.O=C([O-])CN(CCN(CC(=O)O)CC(=O)O)CC(=O)[O-].[Na+].[Na+]` [disodium EDTA dihydrate, Disodium EDTA dihydrate], for which the “SAN BIO 12-94 fungal growth” value is given as “Full (f) (insufficient protection, sample is covered with fungi)” in assay [2] (0.25 pbw (B), 0 pbw (C)); “Full (f) (insufficient protection, sample is covered with fungi)” in assay [2] (0.5 pbw (B), 0 pbw (C)); “Full (f) (insufficient protection, sample is covered with fungi)” in assay [2] (1 pbw (B), 0 pbw (C)). Moreover, the “logarithmic reduction of bacterial growth (log R), JIS L 1902” value in assay [3] (0.25 pbw (B), 0 pbw (C)) is recorded as 3.1 log R. Further, the “G21 (ASTM G21 strengthened rating)” value in assay [1] (setting [6]) is listed as 0; in assay [1] (memory foam A2, 0.25 pbw (B), 0 pbw (C)), 3 (30 to 60% of the surface is covered with mold fungi); in assay [1] (setting [7]), 3 (30 to 60% of the surface is covered with mold fungi); in assay [1] (memory foam A2, 1 pbw (B), 0 pbw (C)), 3 (30 to 60% of the surface is covered with mold fungi). For the same compound, the “antimicrobial efficiency / protection (in words)” value in assay [1] (memory foam A1, (B) combined with (C) dimethyltetradecyl(3-(trimethoxysilyl)propyl)ammonium chloride, ASTM G21 strengthened) is recorded as “very good antimicrobial efficiency”. The “ASTM G21” value in assay [1] (memory foam A2) turned out to be 0. In addition, the “ASTM G21 strengthened rating” value in assay [1] (0.5 pbw (B), 0 pbw (C)) is listed as 4 (at least 60% of the surface is covered with mold fungi).

In the case of `CCCCCCCCCCCCN(CCCN)CCCN` [laurylamine dipropylenediamine], the “G21 (ASTM G21 strengthened rating)” value in assay [1] (setting [10]) and in assay [1] (setting [13]) was 4 (at least 60% of the surface is covered with mold fungi) throughout.

Regarding `CCCCCCCCCCCCCC[N+](C)(C)C.[Cl-]` [myristyltrimethylammonium chloride], the “G21 (ASTM G21 strengthened rating)” value is 2 (10 to 30% of the surface is covered with mold fungi) in assay [1] (setting [10]), 0 in assay [1] (setting [13]) and 0 in assay [1] (setting [14]).

For the compound `O=C([O-])CN(CCN(CC(=O)[O-])CC(=O)[O-])CC(=O)[O-].[Na+].[Na+].[Na+].[Na+]` [tetrasodium EDTA salt, EDTA, tetrasodium], the “G21 (ASTM G21 strengthened rating)” value in assay [1] worked out at 0. Further, the “antimicrobial efficiency / protection (in words)” value in assay [1] is listed as “very good antimicrobial efficiency”. For the same compound, the “EN ISO 846 A rating” value in assay [4] (0.25 pbw (B), 0 pbw (C)) was 5; in assay [4] (0.5 pbw (B), 0 pbw (C)) it was 5; in assay [4] (1 pbw (B), 0 pbw (C)), 5. For the same compound, the “Bacterial Activity R, logarithmic reduction (log R activity), JIS Z 2801” value in assay [5] (0.25 pbw (B), 0 pbw (C)) is given as 0.90 log R; in assay [5] (0.5 pbw (B), 0 pbw (C)), 3.20 log R.

In the case of “C8-C18-alkyldimethylbenzyl ammonium chloride”, the “G21 (ASTM G21 strengthened rating)” value in assay [1] (setting [9]) is 3 (30 to 60% of the surface is covered with mold fungi) and 2 (10 to 30% of the surface is covered with mold fungi); in assay [1] (setting [10]), 4 (at least 60% of the surface is covered with mold fungi); in assay [1] (setting [13]) it was 4 (at least 60% of the surface is covered with mold fungi); in assay [1] (setting [14]), 0. Besides, the “ASTM G21 strengthened rating” value in assay [1] (0.25 pbw (C), 0 pbw (B)) is listed as 3 (30 to 60% of the surface is covered with mold fungi).

Source of the values: patent publication US20230128969A1, “POLYURETHANE FOAM COMPOSITIONS WITH ANTIMICROBIAL PROPERTIES” (SANITIZED AG, priority 2020, published 2023).
